Earlier results as cited in article PMC3288358 (ACS Chemical Biology, 2011).

Columns and labels:
male Long-Evans rats = settings: requires higher minimal doses for activation; ref [8]
hMc3R = hMc3R (Homo sapiens, UniProt P41968); settings: read-out: Mc3R EC50; cAMP assay; data adapted from ref Wilczynski et al. ([34])
Chain of hMc3R (P41968 whole entry): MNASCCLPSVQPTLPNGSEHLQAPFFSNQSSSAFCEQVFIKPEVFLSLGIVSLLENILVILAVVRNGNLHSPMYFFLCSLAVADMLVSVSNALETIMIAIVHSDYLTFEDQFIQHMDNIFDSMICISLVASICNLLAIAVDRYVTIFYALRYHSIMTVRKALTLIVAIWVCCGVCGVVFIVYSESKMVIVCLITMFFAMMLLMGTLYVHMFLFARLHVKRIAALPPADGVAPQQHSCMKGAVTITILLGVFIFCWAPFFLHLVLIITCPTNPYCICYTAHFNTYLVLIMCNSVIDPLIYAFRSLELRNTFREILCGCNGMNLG

Row | EC50 (hMc3R) [nM] | Substance | Long-term feeding response compared with AgRP (male Long-Evans rats)
1 |  | SHU9119 | long-term response similar to AgRP
2 | 8.9 ± 0.2 | AgRP(87-132): Truncated AgRP lacking the four residue N-terminal segment, N-terminal acetylated | 
